Assay results from patent US20240270809A1, “ORAL GLP RECEPTOR AGONISTS” (priority 2020, published 2024).
Positions of bridges follow the written chain, without caps; N, C: chain ends. Non-standard residues stand in square brackets, D forms with d. Residues, ends and D or L forms follow the SMILES beside them. *: point of attachment. Malonyl(2,2-Me2,histaminyl) = CC(C)(C(=O)NCCc1cnc[nH]1)C(=O)*; Ala(1H-tetrazol-5-yl) = N[C@@H](Cc1nnn[nH]1)C(=O)O; αMePhe(2-F) = C[C@](N)(Cc1ccccc1F)C(=O)O; αMeL = CC(C)C[C@](C)(N)C(=O)O; Nle = CCCC[C@H](N)C(=O)O; Aib = CC(C)(N)C(=O)O

Columns and labels:
human GLP2 receptor = target: T1, human GLP2 receptor (Homo sapiens, UniProt O95838); assay: cAMP accumulation assay, functional agonism of human GLP2 receptor; type: cell-based; conditions: HEK cells infected with human GLP2 receptor BacMam virus, HTRF cAMP; for Emax: HEK293, read-out: Human GLP-2R agonist cAMP Emax; for EC50: read-out: Human GLP-2R agonist cAMP pEC50 (converted)
T1 construct: expressed in transfected cells; host or cells: HEK cells, BacMam virus transduction
T1 sequence (O95838 1-553): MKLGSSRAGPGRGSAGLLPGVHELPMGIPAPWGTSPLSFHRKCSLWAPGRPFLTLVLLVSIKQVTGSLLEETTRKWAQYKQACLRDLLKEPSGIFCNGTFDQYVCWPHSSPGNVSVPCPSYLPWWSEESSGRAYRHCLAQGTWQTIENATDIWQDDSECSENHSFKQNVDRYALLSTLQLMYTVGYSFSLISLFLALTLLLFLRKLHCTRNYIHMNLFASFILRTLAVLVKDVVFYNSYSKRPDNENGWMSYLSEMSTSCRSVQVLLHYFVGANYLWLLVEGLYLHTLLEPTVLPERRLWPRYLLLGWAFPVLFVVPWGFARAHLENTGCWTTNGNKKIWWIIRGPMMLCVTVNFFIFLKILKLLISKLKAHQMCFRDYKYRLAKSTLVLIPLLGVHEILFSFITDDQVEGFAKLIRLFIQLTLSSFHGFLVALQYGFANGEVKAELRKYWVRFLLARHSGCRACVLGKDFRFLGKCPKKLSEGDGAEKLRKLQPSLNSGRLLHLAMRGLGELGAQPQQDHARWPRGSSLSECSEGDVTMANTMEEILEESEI
Summary of the method: (§1)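 Agonist-driven cAMP production was quantified by homogeneous time-resolved fluorescence. Receptor expression in HEK cells came from a 24-hour BacMam infection, and cells were frozen ahead of the assay. Incubation lasted 45 min at 37° C in HBSS supplemented with 0.5 mM IBMX.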

human GLP1 receptor = target: T2, human GLP1 receptor (Homo sapiens, UniProt P43220); assay: cAMP accumulation assay, functional agonism of human GLP1 receptor; type: cell-based; conditions: HEK cells infected with human GLP1 receptor BacMam virus, HTRF cAMP; for Emax: HEK293, read-out: Human GLP-1R agonist cAMP Emax; for EC50: read-out: Human GLP-1R agonist cAMP pEC50 (converted)
T2 construct: expressed in transfected cells; host or cells: HEK cells, BacMam virus transduction
Summary of the method: as §1

T2 sequence (P43220 24-463): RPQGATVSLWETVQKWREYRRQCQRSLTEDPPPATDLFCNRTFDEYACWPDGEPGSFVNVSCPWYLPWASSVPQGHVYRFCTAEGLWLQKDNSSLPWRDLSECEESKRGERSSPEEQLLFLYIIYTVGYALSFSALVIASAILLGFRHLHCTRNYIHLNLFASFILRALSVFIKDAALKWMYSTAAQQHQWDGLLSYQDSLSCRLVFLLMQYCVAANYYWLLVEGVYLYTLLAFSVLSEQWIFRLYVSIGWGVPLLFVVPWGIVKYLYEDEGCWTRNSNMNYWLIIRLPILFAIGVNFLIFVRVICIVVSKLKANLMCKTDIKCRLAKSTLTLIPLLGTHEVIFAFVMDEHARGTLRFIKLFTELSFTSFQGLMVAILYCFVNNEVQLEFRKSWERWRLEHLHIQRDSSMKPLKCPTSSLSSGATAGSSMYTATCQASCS

Compound | Emax (human GLP2 receptor) [%] | EC50 (human GLP2 receptor) [pM] | Emax (human GLP1 receptor) [%] | EC50 (human GLP1 receptor) [pM]
CCCC[C@H](NC(=O)[C@H](CCC(=O)O)NC(=O)[C@@H]1CC(=O)NCCCC[C@H](NC(=O)[C@H](CCC(N)=O)NC(=O)C(C)(C)NC(=O)[C@@H](N)Cc2c[nH]cn2)C(=O)N[C@@H](CO)C(=O)N[C@@H](Cc2ccccc2)C(=O)N[C@@H](CO)C(=O)N1)C(=O)N[C@H](Cc1ccccc1)C(=O)N[C@H](C(=O)N[C@@](C)(CC(C)C)C(=O)N[C@@H](CC(C)C)C(=O)N[C@@H](CC(=O)O)C(=O)N[C@H]1CCC(=O)NCCCC[C@@H](C(=O)N[C@@H](CC(=O)O)C(=O)N[C@@H](Cc2ccccc2)C(=O)N[C@H](C(=O)N[C@H]2CCC(=O)NCCCC[C@@H](C(=O)N[C@H]3CCC(=O)NCCCC[C@@H](C(N)=O)NC(=O)[C@H]([C@@H](C)O)NC(=O)[C@H]([C@@H](C)CC)NC(=O)[C@H](CCCCN)NC3=O)NC(=O)[C@H]([C@@H](C)CC)NC(=O)[C@H](CC(C)C)NC(=O)[C@H](Cc3c[nH]c4ccccc34)NC2=O)[C@@H](C)CC)NC(=O)[C@H](C)NC(=O)[C@H](C)NC(=O)[C@H](CCCCN)NC1=O)[C@@H](C)O [Example 63] (H-H[Aib]QKSFSDE[Nle][dF]T[αMeL]LDEKAAKDFIEWLIKEKITK-NH2; lactam 4-8, 16-20, 24-28, 29-33 (inferred); C-terminus assumed) | 99.7 | 100 | 96.9 | 1000
CCCC[C@@H]1NC(=O)[C@H](CCC(=O)O)NC(=O)[C@@H](NC(=O)[C@H](CO)NC(=O)[C@H](Cc2ccccc2)NC(=O)[C@H](CO)NC(=O)CNC(=O)[C@H](Cc2nn[nH]n2)NC(=O)C(C)(C)C(=O)NCCc2c[nH]cn2)CCCCNC(=O)C[C@@H](C(=O)N[C@H](C(=O)N[C@@H](CC(C)C)C(=O)N[C@@H](CC(=O)O)C(=O)N[C@H]2CCC(=O)NCCCC[C@@H](C(=O)N[C@@H](CC(=O)O)C(=O)N[C@@H](Cc3ccccc3)C(=O)N[C@H](C(=O)N[C@@H](CC(N)=O)C(=O)N[C@@H](Cc3c[nH]c4ccccc34)C(=O)N[C@@H](CC(C)C)C(=O)N[C@H](C(=O)N[C@@H](CCC(N)=O)C(=O)N[C@H](C(=O)N[C@H]3CCC(=O)NCCCC[C@@H](C(N)=O)NC(=O)[C@H]([C@@H](C)O)NC(=O)[C@H]([C@@H](C)CC)NC3=O)[C@@H](C)O)[C@@H](C)CC)[C@@H](C)CC)NC(=O)C(C)(C)NC(=O)C(C)(C)NC(=O)[C@H](CCCCN)NC2=O)[C@@H](C)CC)NC(=O)[C@@H](Cc2ccccc2)NC1=O [Example 16] ({Malonyl(2,2-Me2,histaminyl)}-[Ala(1H-tetrazol-5-yl)]GSFSKE[Nle][dF]DILDEK[Aib][Aib]KDFINWLIQTEITK-NH2; lactam 6-10, 14-18, 28-31; C-terminus assumed) | 104 | 251 | 94.1 | 631
CCCC[C@@H]1NC(=O)[C@H](CCC(=O)O)NC(=O)[C@@H](NC(=O)[C@H](CO)NC(=O)[C@](C)(Cc2ccccc2F)NC(=O)[C@H](CO)NC(=O)[C@@H](C)NC(=O)[C@H](CC(=O)O)NC(=O)C(C)(C)C(=O)NCCc2c[nH]cn2)CCCCNC(=O)C[C@@H](C(=O)N[C@@](C)(CC(C)C)C(=O)N[C@@H](CC(C)C)C(=O)N[C@@H](CC(=O)O)C(=O)N[C@H]2CCC(=O)NCCCC[C@@H](C(=O)N[C@@H](CC(=O)O)C(=O)N[C@@H](Cc3ccccc3)C(=O)N[C@H](C(=O)N[C@@H](CC(N)=O)C(=O)N[C@@H](Cc3c[nH]c4ccccc34)C(=O)N[C@@H](CC(C)C)C(=O)N[C@H](C(=O)N[C@@H](CCC(N)=O)C(=O)N[C@H]3CCC(=O)NCCCC[C@@H](C(N)=O)NC(=O)[C@H]([C@@H](C)O)NC(=O)[C@H]([C@@H](C)CC)NC(=O)[C@H](CCCCN)NC3=O)[C@@H](C)CC)[C@@H](C)CC)NC(=O)[C@H](C)NC(=O)[C@H](C)NC(=O)[C@H](CCCCN)NC2=O)NC(=O)[C@@H](Cc2ccccc2)NC1=O [Example 25] ({Malonyl(2,2-Me2,histaminyl)}-D[dA]S[αMePhe(2-F)]SKE[Nle][dF]D[αMeL]LDEKAAKDFINWLIQEKITK-NH2; lactam 6-10, 14-18, 27-31 (inferred); C-terminus assumed) | 103 | 25.1 | 97.6 | 31.6
CCCC[C@H](NC(=O)[C@H](CCC(=O)O)NC(=O)[C@H](CC(=O)O)NC(=O)[C@H](CO)NC(=O)[C@H](Cc1ccccc1)NC(=O)[C@H](CO)NC(=O)CNC(=O)[C@H](CC(=O)O)NC(=O)C(C)(C)NC(=O)[C@@H](N)Cc1c[nH]cn1)C(=O)N[C@H](Cc1ccccc1)C(=O)N[C@H](C(=O)N[C@H](C(=O)N[C@@H](CC(C)C)C(=O)N[C@@H](CC(=O)O)C(=O)N[C@@H](CC(C)C)C(=O)N[C@@H](CCCCN)C(=O)N[C@@H](C)C(=O)N[C@@H](C)C(=O)N[C@@H](CCCCN)C(=O)N[C@@H](CC(=O)O)C(=O)N[C@@H](Cc1ccccc1)C(=O)N[C@H](C(=O)N[C@H]1CCCCNC(=O)C[C@@H](C(=O)N[C@H](C(=O)N[C@@H](CCCCN)C(=O)N[C@H](C(=O)N[C@H](C(=O)N[C@@H](CC(=O)O)C(N)=O)[C@@H](C)O)[C@@H](C)CC)[C@@H](C)O)NC(=O)[C@H]([C@@H](C)CC)NC(=O)[C@H](CC(C)C)NC(=O)[C@H](Cc2c[nH]c3ccccc23)NC1=O)[C@@H](C)CC)[C@@H](C)CC)[C@@H](C)O [Example 100] (H-H[Aib]DGSFSDE[Nle][dF]TILDLKAAKDFIKWLIDTKITD-NH2; lactam 24-28; N-terminus and C-terminus assumed) | 100 | 5.01 | 96 | 794
CCCC[C@H](NC(=O)[C@H](CCC(=O)O)NC(=O)[C@H](CC(=O)O)NC(=O)[C@H](CO)NC(=O)[C@H](Cc1ccccc1)NC(=O)[C@H](CO)NC(=O)CNC(=O)[C@H](CC(=O)O)NC(=O)C(C)(C)NC(=O)[C@@H](N)Cc1c[nH]cn1)C(=O)N[C@H](Cc1ccccc1)C(=O)N[C@H](C(=O)N[C@H](C(=O)N[C@@H](CC(C)C)C(=O)N[C@@H](CC(=O)O)C(=O)N[C@@H](CC(C)C)C(=O)N[C@H]1CCC(=O)NCCCC[C@@H](C(=O)N[C@@H](CC(=O)O)C(=O)N[C@@H](Cc2ccccc2)C(=O)N[C@H](C(=O)N[C@@H](CC(N)=O)C(=O)N[C@@H](Cc2c[nH]c3ccccc23)C(=O)N[C@@H](CC(C)C)C(=O)N[C@H](C(=O)N[C@@H](CCC(N)=O)C(=O)N[C@H](C(=O)N[C@@H](CCCCN)C(=O)N[C@H](C(=O)N[C@H](C(=O)N[C@@H](CC(=O)O)C(N)=O)[C@@H](C)O)[C@@H](C)CC)[C@@H](C)O)[C@@H](C)CC)[C@@H](C)CC)NC(=O)[C@H](C)NC(=O)[C@H](C)NC1=O)[C@@H](C)CC)[C@@H](C)O [Example 98] (H-H[Aib]DGSFSDE[Nle][dF]TILDLEAAKDFINWLIQTKITD-NH2; lactam 17-20; C-terminus assumed) | 101 | 6.31 | 96 | 20000
CCCC[C@H](NC(=O)[C@H](CCC(=O)O)NC(=O)[C@H](CC(=O)O)NC(=O)[C@H](CO)NC(=O)[C@H](Cc1ccccc1)NC(=O)[C@H](CO)NC(=O)CNC(=O)[C@H](CC(=O)O)NC(=O)C(C)(C)NC(=O)[C@@H](N)Cc1c[nH]cn1)C(=O)N[C@H](Cc1ccccc1)C(=O)N[C@H]1CC(=O)NCCCC[C@@H](C(=O)N[C@@H](CCCCN)C(=O)N[C@@H](C)C(=O)N[C@@H](C)C(=O)N[C@@H](CCCCN)C(=O)N[C@@H](CC(=O)O)C(=O)N[C@@H](Cc2ccccc2)C(=O)N[C@H](C(=O)N[C@@H](CC(N)=O)C(=O)N[C@@H](Cc2c[nH]c3ccccc23)C(=O)N[C@@H](CC(C)C)C(=O)N[C@H](C(=O)N[C@@H](CCC(N)=O)C(=O)N[C@H](C(=O)N[C@@H](CCCCN)C(=O)N[C@H](C(=O)N[C@H](C(=O)N[C@@H](CC(=O)O)C(N)=O)[C@@H](C)O)[C@@H](C)CC)[C@@H](C)O)[C@@H](C)CC)[C@@H](C)CC)NC(=O)[C@H](CC(=O)O)NC(=O)[C@H](CC(C)C)NC(=O)[C@H]([C@@H](C)CC)NC1=O [Example 97] (H-H[Aib]DGSFSDE[Nle][dF]DILDKKAAKDFINWLIQTKITD-NH2; lactam 12-16; N-terminus and C-terminus assumed) | 101 | 3.16 | 96.6 | 316
